What was measured:
[1] = in vivo adrenal toxicity screen in guinea pigs (Dominick et al.); parameters: species or system male guinea pigs of the Hartley strain; details: 100 mg/kg daily gavage, 2 weeks; for toxicity class to the adrenal gland: oleic acid vehicle
Procedure: Male guinea pigs of the Hartley strain (450-500 g) were obtained from Charles River and randomly divided into treatment groups. They were fed standard guinea pig chow ad libitum and dosed daily (AM) by gavage (100 mg/kg). The test compounds were dissolved or suspended in an oleic acid vehicle to facilitate absorption. After 2 weeks the animals were sacrificed by CO2 asphyxiation in the nonfasted state 16 hours after the last dose. Adrenal glands were weighed, fixed in 10% formalin, processed by routine paraffin techniques, sectioned, and then stained with hematoxylin and eosin for light microscopy. Toxicity was defined by the incidence, severity, and complexity of adrenal histopathologic alterations in the zona fasciculata (e.g., adrenal cortical atrophy, increased coarse vacuolation, single-cell necrosis, inflammatory cell infiltrates, mineralization/ectopic bone formation, and increased cytoplasmic eosinophilia).

[2] = APCC in vivo screen: blood cholesterol in rats on PCC diet with cholic acid; parameters: species or system male Sprague-Dawley rats; details: single dosing at 4 PM, PCC diet overnight with 1% or 0.5% cholic acid, sacrificed 8 AM
Procedure: The compounds were also evaluated in an in vivo screen designated APCC whereby male Sprague-Dawley rats (200 to 225 g) were randomly divided into treatment groups and dosed at 4 PM with either vehicle (CMC/Tween) or suspensions of compounds in vehicle. The normal chow diet was then replaced with the PCC diet with either 1% or 0.5% cholic acid. The rats consumed this diet ad libitum during the night and were sacrificed at 8 AM to obtain blood samples for cholesterol analysis using standard procedures. Statistical differences between mean cholesterol values for the same vehicle were determined using analysis of variance followed by Fisher-s least significant test.
The data appear in Table II where they are expressed as % change.

Row | Compound | APCC % Change TC [2] | also measured
1 | CCCCCCCCCCCCC(C)OC(=O)CC(=O)Nc1c(C(C)C)cccc1C(C)C (racemic) [(±)3-[[2,6-bis(1-methylethyl)phenyl]amino]-3-oxo-propanoic acid, 1-methyltridecyl ester] | – | atrophy of the zona reticularis (incidence) [1]: two of six; cytotoxic zonal atrophy of the zona fasciculata (incidence) [1]: six of six; increased coarse vacuoles (incidence) [1]: two of six; inflammatory cell infiltrates (incidence) [1]: four of six; necrosis of the adrenal cortex (incidence) [1]: four of six; toxicity class to the adrenal gland [1]: highly toxic to the adrenal gland
2 | CCCCCCCCCCCCC(C)OC(=O)C(C(=O)Nc1c(C(C)C)cccc1C(C)C)c1ccccc1 (racemic) [Example 1, (±)-Benzeneacetic acid, α-[[[2,6-bis(1-methylethyl)phenyl]amino]carbonyl]-, 1-methyltridecylester] | -61% | increased coarse vacuoles (incidence) [1]: one of six; toxicity class to the adrenal gland [1]: nontoxic to the adrenal gland
3 | CCCCCCCCCCCCOC(=O)C(C(=O)Nc1c(C(C)C)cccc1C(C)C)c1ccccc1 (racemic) [Example 3, (±)-Benzeneacetic acid, α-[[[2,6-bis(1-methylethyl)phenyl]amino]carbonyl]-, dodecyl ester] | -63% | increased coarse vacuoles (incidence) [1]: five of six; toxicity class to the adrenal gland [1]: nontoxic to the adrenal gland
4 | CCCCCCCCCCC(C)OC(=O)C(C(=O)Nc1c(C(C)C)cccc1C(C)C)c1ccccc1 (racemic) [Example 4, (±)-Benzeneacetic acid, α-[[[2,6-bis(1-methylethyl)phenyl]amino]carbonyl]-, 1-methylundecyl ester] | -37% | –
5 | CCCCCCCCCCCCCCOC(=O)C(C(=O)Nc1c(C(C)C)cccc1C(C)C)c1ccccc1 (racemic) [Example 5, (±)-Benzeneacetic acid, α-[[[2,6-bis(1-methylethyl)phenyl]amino]carbonyl]-, tetradecyl ester] | -49% | –
6 | CCCCCCCCCCOC(=O)C(C(=O)Nc1c(C(C)C)cccc1C(C)C)c1ccccc1 (racemic) [Example 6, (±)-Benzeneacetic acid, α-[[[2,6-bis(1-methylethyl)phenyl]amino]carbonyl]-, decyl ester] | -58% | –
7 | CCCCCC(C)OC(=O)C(C(=O)Nc1c(C(C)C)cccc1C(C)C)c1ccccc1 (racemic) [Example 7, (±)-Benzeneacetic acid, α-[[[2,6-bis(1-methylethyl)phenyl]amino]carbonyl]-, 1-methylhexyl ester] | -67% | –
8 | CCCCCCCOC(=O)C(C(=O)Nc1c(C(C)C)cccc1C(C)C)c1ccccc1 (racemic) [Example 8, (±)-Benzeneacetic acid, α-[[[2,6-bis(1-methylethyl)phenyl]amino]carbonyl]-, heptyl ester] | -71% | –
9 | CCCOC(=O)C(C(=O)Nc1c(C(C)C)cccc1C(C)C)c1ccccc1 (racemic) [Example 9, (±)-Benzeneacetic acid, α-[[[2,6-bis(1-methylethyl)phenyl]amino]carbonyl]-, propyl ester] | -20% | –
10 | CCCCCCCCOC(=O)C(C(=O)Nc1c(C(C)C)cccc1C(C)C)c1ccccc1 (racemic) [Example 10, (±)-Benzeneacetic acid, α-[[[2,6-bis(1-methylethyl)phenyl]amino]carbonyl]-, octyl ester] | -56% | –
11 | CCCCCCCCCOC(=O)C(C(=O)Nc1c(C(C)C)cccc1C(C)C)c1ccccc1 (racemic) [Example 11, (±)-Benzeneacetic acid, α-[[[2,6-bis(1-methylethyl)phenyl]amino]carbonyl]-, nonyl ester] | -67% | –
12 | CCCCCCCCCCCCC(C)(C)OC(=O)C(C(=O)Nc1c(C(C)C)cccc1C(C)C)c1ccccc1 (racemic) [Example 12, (±)-Benzeneacetic acid, α-[[[2,6-bis(1-methylethyl)phenyl]amino]carbonyl]-, 1,1-dimethyltridecyl ester] | -26% | –
13 | CCCCCCCCCCCCCCCCOC(=O)C(C(=O)Nc1c(C(C)C)cccc1C(C)C)c1ccccc1 (racemic) [Example 13, (±)-Benzeneacetic acid, α-[[[2,6-bis(1-methylethyl)phenyl]amino]carbonyl]-, hexadecyl ester] | -26% | –
14 | CCCCCCCCCCCCCCCCCCOC(=O)C(C(=O)Nc1c(C(C)C)cccc1C(C)C)c1ccccc1 (racemic) [Example 14, (±)-Benzeneacetic acid, α-[[[2,6-bis(1-methylethyl)phenyl]amino]carbonyl]-, octadecyl ester] | -25% | –
15 | CCCCC(C)(C)OC(=O)C(C(=O)Nc1c(C(C)C)cccc1C(C)C)c1ccccc1 (racemic) [Example 15, (±)-Benzeneacetic acid, α-[[[2,6-bis(1-methylethyl)phenyl]amino]carbonyl]-, 1,1-dimethylpentyl ester] | -72% | –
16 | CCCCCCCCCCCCCCC(C)OC(=O)C(C(=O)Nc1c(C(C)C)cccc1C(C)C)c1ccccc1 (racemic) [Example 16, (±)-Benzeneacetic acid, α-[[[2,6-bis(1-methylethyl)phenyl]amino]carbonyl]-, 1-methylpentadecyl ester] | -37% | –
17 | CCCCCCCCCCCCC(C)OC(=O)C(C(=O)Nc1c(OC)cc(OC)cc1OC)c1ccccc1 (racemic) [Example 17, (±)-Benzeneacetic acid, α-[[(2,4,6-trimethoxyphenyl)amino]carbonyl]-, 1-methyltridecyl ester] | -59% | –
18 | CCCCCCCCCCCCOC(=O)C(C(=O)Nc1c(OC)cc(OC)cc1OC)c1ccccc1 (racemic) [Example 18, (±) -Benzeneacetic acid, α-[[(2,4,6-trimethoxyphenyl)amino]carbonyl]-, dodecyl ester] | -51% | –
19 | CCCCCCCCCCCCOC(=O)C(C(=O)Nc1c(C(C)C)cccc1C(C)C)c1ccccn1 (racemic) [Example 19, (±)-2-pyridineacetic acid, α-[[[2,6-bis(1-methylethyl)phenyl]amino]carbonyl]-, dodecyl ester] | -43% | –

— US5420339A, “Alpha-aryl or heteroaryl-substituted amide ester ACAT inhibitors” (Warner-Lambert Company, priority 1993, dated 1995)
